Reference: article PMC7327383, “The affinity and selectivity of α‐adrenoceptor antagonists, antidepressants, and antipsychotics for the human α1A, α1B, and α1D‐adrenoceptors” (Pharmacology Research & Perspectives, 2020)
Like-named read-outs stand apart in the source and are kept apart here.

Assays:
[1] = target: T1, full-length human α1D-adrenoceptor (Homo sapiens, UniProt P25100); assay: [3H]prazosin whole-cell competition binding, CHO-α1D cells; conditions: for Log KD α1D site 2: low-affinity component of two-component curve; for Log KD α1D site 1: high-affinity component of two-component curve
T1 sequence (P25100 1-572): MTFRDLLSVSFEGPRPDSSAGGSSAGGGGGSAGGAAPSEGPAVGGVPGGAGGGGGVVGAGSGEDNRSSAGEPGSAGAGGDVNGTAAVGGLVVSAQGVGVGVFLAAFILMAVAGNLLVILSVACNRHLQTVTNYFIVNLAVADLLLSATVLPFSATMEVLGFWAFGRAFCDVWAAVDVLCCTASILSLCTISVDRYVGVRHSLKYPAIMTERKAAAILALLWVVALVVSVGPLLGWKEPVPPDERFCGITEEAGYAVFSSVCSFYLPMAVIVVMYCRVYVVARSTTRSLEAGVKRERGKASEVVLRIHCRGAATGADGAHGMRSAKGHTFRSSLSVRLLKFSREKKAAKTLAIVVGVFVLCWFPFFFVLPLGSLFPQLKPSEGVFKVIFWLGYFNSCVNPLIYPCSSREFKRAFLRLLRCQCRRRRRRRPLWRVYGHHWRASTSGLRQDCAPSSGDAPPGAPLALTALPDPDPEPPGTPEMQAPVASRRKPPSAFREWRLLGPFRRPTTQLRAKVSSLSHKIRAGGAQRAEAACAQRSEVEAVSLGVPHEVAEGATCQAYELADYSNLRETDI

human α1A-adrenoceptor = target: T2, human α1A-adrenoceptor (Homo sapiens, UniProt P35348); assay: [3H]prazosin whole-cell competition binding, CHO-α1A cells; conditions: for Selectivity ratio α1A vs α1D / Selectivity ratio α1A vs α1B: ratio of KD values, 1.0 under vs = none; for Selectivity ratio α1A vs α1D: higher α1A affinity; for Selectivity ratio α1A vs α1B: printed under α1A = higher α1A affinity
T2 construct: CHO cells stably expressing either the full‐length human α1A, α1B, or α1D‐adrenoceptor
T2 sequence (P35348 1-466): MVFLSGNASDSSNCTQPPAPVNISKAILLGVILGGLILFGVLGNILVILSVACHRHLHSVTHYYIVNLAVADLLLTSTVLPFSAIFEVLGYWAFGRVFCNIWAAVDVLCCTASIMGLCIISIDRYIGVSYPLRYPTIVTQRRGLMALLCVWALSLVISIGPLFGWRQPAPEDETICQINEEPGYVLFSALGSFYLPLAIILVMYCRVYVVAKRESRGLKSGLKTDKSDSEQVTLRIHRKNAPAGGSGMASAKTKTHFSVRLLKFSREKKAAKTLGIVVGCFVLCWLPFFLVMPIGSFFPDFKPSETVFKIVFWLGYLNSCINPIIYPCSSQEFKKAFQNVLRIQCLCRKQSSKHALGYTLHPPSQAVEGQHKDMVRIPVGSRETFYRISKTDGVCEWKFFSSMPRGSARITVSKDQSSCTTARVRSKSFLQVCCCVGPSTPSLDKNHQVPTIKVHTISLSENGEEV

human α1B-adrenoceptor = target: T3, human α1B-adrenoceptor (Homo sapiens, UniProt P35368); assay: [3H]prazosin whole-cell competition binding, CHO-α1B cells; conditions: for Selectivity ratio α1B vs α1D: ratio of KD values, higher α1B affinity, 1.0 under vs = none; for Kd: read-out: Log KD α1B (converted); for selectivity α1B vs α1D: ratio, 1 = no selectivity for a subtype over another
T3 construct: CHO cells stably expressing either the full‐length human α1A, α1B, or α1D‐adrenoceptor
T3 sequence (P35368 1-520): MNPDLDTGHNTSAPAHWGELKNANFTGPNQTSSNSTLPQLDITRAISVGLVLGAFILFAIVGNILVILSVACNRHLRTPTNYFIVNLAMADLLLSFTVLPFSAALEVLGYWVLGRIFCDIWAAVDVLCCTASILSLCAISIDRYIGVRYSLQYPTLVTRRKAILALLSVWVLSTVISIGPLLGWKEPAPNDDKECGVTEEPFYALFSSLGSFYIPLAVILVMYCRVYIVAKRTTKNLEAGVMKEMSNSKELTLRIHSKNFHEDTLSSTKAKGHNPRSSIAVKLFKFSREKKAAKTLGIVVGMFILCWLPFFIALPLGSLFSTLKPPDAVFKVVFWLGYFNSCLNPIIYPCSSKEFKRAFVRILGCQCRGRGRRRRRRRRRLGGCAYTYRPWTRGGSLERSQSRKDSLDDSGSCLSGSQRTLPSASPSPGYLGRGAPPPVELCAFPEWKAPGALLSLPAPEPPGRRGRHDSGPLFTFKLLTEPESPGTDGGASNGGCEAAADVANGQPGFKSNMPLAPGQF

[2] = Log KD α1D, single-component inhibition curve, given as log KD (negative), mean ± SE mean
[3] = single-component inhibition curve, given as log KD (negative), mean ± SE mean, read-out: Log KD α1A (converted)
[4] = single-component inhibition curve, given as log KD (negative), mean ± SE mean
[5] = ratio of KD values, higher α1D affinity (site 1 KD)
[6] = subtype not given, ligands with α1A selectivity (Table 1: α1A), read-out: affinity
[7] = share of site 1 in the two-component inhibition curve
[8] = two-component inhibition curve, proportion of site 1
[9] = log KD from 3H-prazosin whole cell binding, CHO cells, mean ± s.e.mean
[10] = percentage of inhibition through first component, control
[11] = low-affinity component of two-component curve, control

With CN(CCCN1c2ccccc2CCc2ccccc21)CC(=O)c1ccc(Cl)cc1 [Lofepramine] the Kd [1, 2] was 4.27 µM, the “Selectivity ratio α1A vs α1D” value (human α1A-adrenoceptor) was 37 fold and the “Selectivity ratio α1A vs α1B” value (human α1A-adrenoceptor) was 32 fold. The Kd (human α1A-adrenoceptor; [3]) was 0.115 µM, the “Selectivity ratio α1B vs α1D” value (human α1B-adrenoceptor) was 1.2 fold and the Kd (human α1B-adrenoceptor; [4]) was 3.63 µM.
For C[C@H](Cc1cc2c(c(C(N)=O)c1)N(CCCO)CC2)NCCOc1ccccc1OCC(F)(F)F [Silodosin], the Kd [1, 2] was 0.115 µM, the “Selectivity ratio α1B vs α1D” value [1, 5] was 2.8 fold and the “Selectivity ratio α1A vs α1D” value (human α1A-adrenoceptor) was 468 fold. For the same molecule, the “Selectivity ratio α1A vs α1B” value (human α1A-adrenoceptor) was 1288 fold, the Kd (human α1A-adrenoceptor; [3]) was 0.000245 µM and the Kd (human α1A-adrenoceptor; [6]) was < 0.00025 µM. For the same molecule, the “selectivity α1B vs α1D” value (human α1B-adrenoceptor) was 2.8 and the Kd (human α1B-adrenoceptor; [4]) was 0.316 µM.
O=C1Nc2ccccc2C2=NC(CN3CCN(c4ccccc4)CC3)CN12 (centres unmarked) [2-PMDQ] was tested, and the “% site 1 α1D” value [1, 7] was 57.6 ± 2.8%, the “% site 1 α1D” value [1, 8] was 57.6 ± 2.8% and the “Log KD α1A” value (human α1A-adrenoceptor; [9]) was -8.19 ± 0.09. The “Log KD α1B” value (human α1B-adrenoceptor; [9]) was -6.95 ± 0.05.
With COc1cc2nc(N3CCN(C(=O)c4ccco4)[C@H]4CCCC[C@H]43)nc(N)c2cc1OC (racemic) [Cyclazosin] the Kd ([1]; Log KD α1D site 1, high-affinity component of two-component curve, control, used for selectivity) was 0.000135 µM, the Kd ([1]; affinity, subtype not given, by Table 1 reached at α1D site 1) was < 0.00025 µM and the “Log KD α1D site 2” value ([1]; control) was −7.44 ± 0.10. For the same molecule, the “% site 1 α1D” value [1, 10] was 56.8 ± 3.4% site 1, the “Selectivity ratio α1A vs α1D” value [1, 5] was 9.5 fold and the “Selectivity ratio α1B vs α1D” value [1, 5] was 15 fold. For the same molecule, the “% site 1 α1D” value [1, 8] was -9.87 ± 0.06 -7.44 ± 0.10 56.8 ± 3.4% site 1, the “Selectivity ratio α1A vs α1B” value (human α1A-adrenoceptor) was 1.6 fold and the “selectivity α1A vs 1D” value (human α1A-adrenoceptor; ratio, 1 = no selectivity for a subtype over another) was 9.5. The Kd (human α1A-adrenoceptor; [3]) was 0.00129 µM, the “selectivity α1B vs α1D” value (human α1B-adrenoceptor) was 15 and the Kd (human α1B-adrenoceptor; [4]) was 0.00209 µM.
Cc1c[nH]c(=O)n(CCCN2CCN(c3ccccc3OCC(F)(F)F)CC2)c1=O [RS100329] was tested, and the “Log KD α1D site 1” value ([1]; control, used for selectivity) was −7.63 ± 0.17, the “Log KD α1D site 2” value ([1]; control) was −5.13 ± 0.15 and the “% site 1 α1D” value [1, 10] was 70.5 ± 3.0% site 1. The “Selectivity ratio α1B vs α1D” value [1, 5] was 9.1 fold, the “% site 1 α1D” value [1, 8] was -7.63 ± 0.17 -5.13 ± 0.15 70.5 ± 3.0% site 1 and the “Selectivity ratio α1A vs α1D” value (human α1A-adrenoceptor) was 93 fold. The “Selectivity ratio α1A vs α1B” value (human α1A-adrenoceptor) was 851 fold, the “Log KD α1A” value (human α1A-adrenoceptor; [4]) was −9.60 ± 0.05 and the Kd (human α1A-adrenoceptor; [6]) was < 0.00025 µM. For the same molecule, the “selectivity α1B vs α1D” value (human α1B-adrenoceptor) was 9.1 and the “Log KD α1B” value (human α1B-adrenoceptor; [4]) was −6.67 ± 0.07.
For ClCCN(Cc1ccccc1)Cc1ccccc1 [Dibenamine], the “Log KD α1D site 1” value ([1]; control, used for selectivity) was −7.37 ± 0.15, the “Log KD α1D site 2” value ([1]; control) was −5.00 ± 0.14 and the “Selectivity ratio α1B vs α1D” value [1, 5] was 6.3 fold. For the same molecule, the “% site 1 α1D” value [1, 8] was -7.37 ± 0.15 -5.00 ± 0.14 47.8 ± 3.2% site 1, the “Log KD α1A site 1” value (human α1A-adrenoceptor; high-affinity component of two-component curve, control (no thiosulphate)) was −7.91 ± 0.06 and the “Log KD α1A site 2” value (human α1A-adrenoceptor; [11]) was −5.32 ± 0.08. For the same molecule, the “Selectivity ratio α1A vs α1D” value (human α1A-adrenoceptor) was 3.5 fold, the “Selectivity ratio α1A vs α1B” value (human α1A-adrenoceptor) was 22 fold and the “% site 1, α1A” value (human α1A-adrenoceptor; [7]) was -7.91 ± 0.06 -5.32 ± 0.08 83.0 ± 1.8% site 1. For the same molecule, the “% site 1, α1A” value (human α1A-adrenoceptor; [8]) was -7.91 ± 0.06 -5.32 ± 0.08 83.0 ± 1.8% site 1, the “Log KD α1B site 1” value (human α1B-adrenoceptor; high-affinity component of two-component curve, control) was −6.57 ± 0.07 and the “Log KD α1B site 2” value (human α1B-adrenoceptor; [11]) was −4.66 ± 0.06. For the same molecule, the “selectivity α1B vs α1D” value (human α1B-adrenoceptor) was 6.3, the “% site 1, α1B” value (human α1B-adrenoceptor; [7]) was -6.57 ± 0.07 -4.66 ± 0.06 67.6 ± 2.6% site 1 and the “% site 1, α1B” value (human α1B-adrenoceptor; [8]) was -6.57 ± 0.07 -4.66 ± 0.06 67.6 ± 2.6% site 1.
For O=C1Nc2ccccc2C2=NC(CN3CCN(c4ccccc4)CC3)CN12 (centres unmarked) [2‐PMDQ], the “% site 1 α1D” value [1, 10] was 57.6 ± 2.8% site 1, the “Log KD α1A” value (human α1A-adrenoceptor; [4]) was −8.19 ± 0.09 and the “Log KD α1B” value (human α1B-adrenoceptor; [4]) was −6.95 ± 0.05.
In the case of COc1ccccc1N1CCN(CC2CN3C(=O)N(C)c4ccccc4C3=N2)CC1 (centres unmarked) [2‐MPMDQ], the “% site 1 α1D” value [1, 10] is reported as 64.0 ± 2.1% site1, the “Log KD α1A” value (human α1A-adrenoceptor; [4]) is reported as −9.06 ± 0.07 and the “Log KD α1B” value (human α1B-adrenoceptor; [4]) is reported as −7.37 ± 0.04.
For CNCCCC1c2ccccc2C=Cc2ccccc21 [Protriptyline], the Kd [1, 2] was 3.47 µM, the “Selectivity ratio α1A vs α1D” value (human α1A-adrenoceptor) was 16 fold and the “Selectivity ratio α1A vs α1B” value (human α1A-adrenoceptor) was 13 fold. The Kd (human α1A-adrenoceptor; [3]) was 0.214 µM, the “Selectivity ratio α1B vs α1D” value (human α1B-adrenoceptor) was 1.3 fold and the Kd (human α1B-adrenoceptor; [4]) was 2.69 µM.
